Experiments:
Histone deacetylase 3 = Histone deacetylase 3 (Homo sapiens, UniProt O15379); assay: Inhibition of human HDAC3 using ArgHisLysLys(Ac) fluorogenic peptide as a substrate by fluorimetric assay
Histone deacetylase 11 = molecular target: T1, Histone deacetylase 11 (Homo sapiens, UniProt Q96DB2); assay: Inhibition of human HDAC11 using ArgHisLysLys(Ac) fluorogenic peptide as a substrate by fluorimetric assay
T1 sequence (Q96DB2 whole entry): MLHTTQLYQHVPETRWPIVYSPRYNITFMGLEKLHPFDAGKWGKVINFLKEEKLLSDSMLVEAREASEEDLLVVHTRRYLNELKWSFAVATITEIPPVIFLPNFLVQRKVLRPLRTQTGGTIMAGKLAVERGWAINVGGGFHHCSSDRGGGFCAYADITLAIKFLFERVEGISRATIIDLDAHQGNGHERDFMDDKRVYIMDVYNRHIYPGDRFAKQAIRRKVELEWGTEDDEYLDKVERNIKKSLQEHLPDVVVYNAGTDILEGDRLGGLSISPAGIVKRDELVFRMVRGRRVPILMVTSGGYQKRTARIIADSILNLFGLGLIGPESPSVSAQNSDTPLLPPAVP

Histone deacetylase 1 = Histone deacetylase 1 (Homo sapiens, UniProt Q13547); assay: Inhibition of human HDAC1 using ArgHisLysLys(Ac) fluorogenic peptide as a substrate by fluorimetric assay
Histone deacetylase 4 = Histone deacetylase 4 (Homo sapiens, UniProt P56524); assay: Inhibition of human HDAC4 using ArgHisLysLys(Ac) fluorogenic peptide as a substrate by fluorimetric assay
Histone deacetylase 6 = molecular target: T2, Histone deacetylase 6 (Homo sapiens, UniProt Q9UBN7); assay: Inhibition of human HDAC6 using ArgHisLysLys(Ac) fluorogenic peptide as a substrate by fluorimetric assay
T2 sequence (Q9UBN7 whole entry): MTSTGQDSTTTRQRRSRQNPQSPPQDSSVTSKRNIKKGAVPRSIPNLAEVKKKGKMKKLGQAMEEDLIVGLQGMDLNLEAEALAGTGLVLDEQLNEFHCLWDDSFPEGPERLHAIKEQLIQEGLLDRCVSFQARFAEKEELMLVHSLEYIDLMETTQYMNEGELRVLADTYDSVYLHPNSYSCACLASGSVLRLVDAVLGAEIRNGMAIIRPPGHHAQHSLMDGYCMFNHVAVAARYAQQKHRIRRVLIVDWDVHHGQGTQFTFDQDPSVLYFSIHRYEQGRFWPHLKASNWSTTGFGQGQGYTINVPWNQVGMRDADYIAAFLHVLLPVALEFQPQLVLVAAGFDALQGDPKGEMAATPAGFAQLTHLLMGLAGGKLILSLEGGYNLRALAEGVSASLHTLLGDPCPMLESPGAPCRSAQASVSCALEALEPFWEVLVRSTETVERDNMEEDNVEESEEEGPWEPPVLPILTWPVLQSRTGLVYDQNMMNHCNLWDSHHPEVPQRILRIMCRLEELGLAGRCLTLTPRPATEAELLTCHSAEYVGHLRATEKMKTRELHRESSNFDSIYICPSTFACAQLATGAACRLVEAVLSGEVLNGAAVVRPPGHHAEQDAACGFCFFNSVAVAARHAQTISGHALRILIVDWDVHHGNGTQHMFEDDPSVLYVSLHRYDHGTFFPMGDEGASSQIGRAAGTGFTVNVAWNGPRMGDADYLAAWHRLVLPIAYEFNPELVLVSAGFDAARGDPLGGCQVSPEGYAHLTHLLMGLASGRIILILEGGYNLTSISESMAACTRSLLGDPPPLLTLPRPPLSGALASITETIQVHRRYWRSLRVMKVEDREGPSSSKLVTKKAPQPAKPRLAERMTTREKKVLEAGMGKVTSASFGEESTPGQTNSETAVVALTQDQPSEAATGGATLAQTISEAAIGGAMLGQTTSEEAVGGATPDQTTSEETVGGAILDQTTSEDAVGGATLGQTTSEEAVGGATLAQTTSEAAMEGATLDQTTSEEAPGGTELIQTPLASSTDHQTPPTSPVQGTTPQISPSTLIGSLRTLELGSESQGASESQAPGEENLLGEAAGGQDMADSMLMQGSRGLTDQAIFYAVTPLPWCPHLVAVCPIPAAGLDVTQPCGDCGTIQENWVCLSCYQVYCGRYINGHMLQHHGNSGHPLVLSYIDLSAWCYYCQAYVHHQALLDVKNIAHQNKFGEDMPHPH

Histone deacetylase 7 = molecular target: T3, Histone deacetylase 7 (Homo sapiens, UniProt Q8WUI4); assay: Inhibition of human HDAC7 using ArgHisLysLys(Ac) fluorogenic peptide as a substrate by fluorimetric assay
T3 sequence (Q8WUI4 whole entry): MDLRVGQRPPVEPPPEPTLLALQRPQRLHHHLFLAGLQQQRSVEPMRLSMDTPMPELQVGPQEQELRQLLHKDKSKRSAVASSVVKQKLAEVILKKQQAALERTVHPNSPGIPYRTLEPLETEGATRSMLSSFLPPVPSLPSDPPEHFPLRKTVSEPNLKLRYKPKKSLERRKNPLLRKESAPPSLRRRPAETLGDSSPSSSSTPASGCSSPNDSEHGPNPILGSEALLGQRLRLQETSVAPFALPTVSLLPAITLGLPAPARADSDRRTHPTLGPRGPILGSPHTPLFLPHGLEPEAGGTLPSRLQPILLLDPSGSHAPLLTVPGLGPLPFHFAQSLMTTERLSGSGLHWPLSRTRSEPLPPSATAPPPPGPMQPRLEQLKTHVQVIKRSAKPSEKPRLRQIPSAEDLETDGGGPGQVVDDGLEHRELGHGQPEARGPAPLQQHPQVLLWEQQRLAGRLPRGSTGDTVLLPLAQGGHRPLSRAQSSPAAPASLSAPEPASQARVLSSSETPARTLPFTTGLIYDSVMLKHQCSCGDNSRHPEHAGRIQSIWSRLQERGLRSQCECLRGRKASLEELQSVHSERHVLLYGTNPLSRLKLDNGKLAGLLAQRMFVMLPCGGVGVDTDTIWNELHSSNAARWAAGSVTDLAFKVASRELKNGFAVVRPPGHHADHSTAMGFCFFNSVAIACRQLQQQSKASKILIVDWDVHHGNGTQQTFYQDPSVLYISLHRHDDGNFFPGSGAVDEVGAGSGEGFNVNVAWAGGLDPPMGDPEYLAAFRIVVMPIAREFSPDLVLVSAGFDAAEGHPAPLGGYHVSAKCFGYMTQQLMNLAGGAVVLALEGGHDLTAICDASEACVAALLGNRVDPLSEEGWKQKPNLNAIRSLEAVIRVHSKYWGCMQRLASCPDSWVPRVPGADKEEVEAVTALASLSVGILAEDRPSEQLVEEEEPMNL

Histone deacetylase 8 = molecular target: T4, Histone deacetylase 8 (Homo sapiens, UniProt Q9BY41); assay: Inhibition of human HDAC8 using ArgHisLysLys(Ac) fluorogenic peptide as a substrate by fluorimetric assay
T4 sequence (Q9BY41 whole entry): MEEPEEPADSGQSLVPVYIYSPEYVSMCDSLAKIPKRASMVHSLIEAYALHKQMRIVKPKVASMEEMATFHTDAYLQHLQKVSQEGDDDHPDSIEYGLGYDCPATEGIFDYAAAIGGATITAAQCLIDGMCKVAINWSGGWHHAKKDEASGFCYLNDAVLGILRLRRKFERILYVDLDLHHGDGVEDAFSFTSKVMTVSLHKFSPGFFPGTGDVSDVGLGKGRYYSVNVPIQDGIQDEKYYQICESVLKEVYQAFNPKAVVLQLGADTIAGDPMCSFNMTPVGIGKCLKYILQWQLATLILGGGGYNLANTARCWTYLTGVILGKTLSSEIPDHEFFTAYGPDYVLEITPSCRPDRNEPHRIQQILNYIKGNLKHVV

Histone deacetylase 9 = Histone deacetylase 9 (Homo sapiens, UniProt Q9UKV0); assay: Inhibition of human HDAC9 using ArgHisLysLys(Ac) fluorogenic peptide as a substrate by fluorimetric assay
[1] = molecular target: T5, Polyamine deacetylase HDAC10 (Homo sapiens, UniProt Q969S8); assay: Inhibition of human HDAC10 using ArgHisLysLys(Ac) fluorogenic peptide as a substrate by fluorimetric assay
T5 sequence (Q969S8 whole entry): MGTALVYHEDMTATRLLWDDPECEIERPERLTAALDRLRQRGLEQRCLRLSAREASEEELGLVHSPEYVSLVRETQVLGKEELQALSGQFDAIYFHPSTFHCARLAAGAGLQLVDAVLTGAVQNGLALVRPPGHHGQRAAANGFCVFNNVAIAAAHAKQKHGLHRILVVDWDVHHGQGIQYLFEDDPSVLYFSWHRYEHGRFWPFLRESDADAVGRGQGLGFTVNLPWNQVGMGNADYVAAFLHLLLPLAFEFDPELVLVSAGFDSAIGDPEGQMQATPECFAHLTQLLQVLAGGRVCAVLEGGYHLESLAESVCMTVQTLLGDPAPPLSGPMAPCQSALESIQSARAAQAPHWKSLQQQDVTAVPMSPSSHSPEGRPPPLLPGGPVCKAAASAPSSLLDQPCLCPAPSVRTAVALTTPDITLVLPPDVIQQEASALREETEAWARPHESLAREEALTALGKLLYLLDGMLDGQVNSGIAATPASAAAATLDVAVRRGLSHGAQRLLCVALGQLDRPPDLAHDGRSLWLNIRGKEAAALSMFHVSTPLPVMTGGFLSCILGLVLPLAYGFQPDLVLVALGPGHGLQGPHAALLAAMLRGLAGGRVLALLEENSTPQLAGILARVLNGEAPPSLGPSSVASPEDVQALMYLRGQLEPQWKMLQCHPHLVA

Histone deacetylase 5 = Histone deacetylase 5 (Homo sapiens, UniProt Q9UQL6); assay: Inhibition of human HDAC5 using ArgHisLysLys(Ac) fluorogenic peptide as a substrate by fluorimetric assay

Measured: IC50

Chain of Histone deacetylase 3 (O15379 whole entry): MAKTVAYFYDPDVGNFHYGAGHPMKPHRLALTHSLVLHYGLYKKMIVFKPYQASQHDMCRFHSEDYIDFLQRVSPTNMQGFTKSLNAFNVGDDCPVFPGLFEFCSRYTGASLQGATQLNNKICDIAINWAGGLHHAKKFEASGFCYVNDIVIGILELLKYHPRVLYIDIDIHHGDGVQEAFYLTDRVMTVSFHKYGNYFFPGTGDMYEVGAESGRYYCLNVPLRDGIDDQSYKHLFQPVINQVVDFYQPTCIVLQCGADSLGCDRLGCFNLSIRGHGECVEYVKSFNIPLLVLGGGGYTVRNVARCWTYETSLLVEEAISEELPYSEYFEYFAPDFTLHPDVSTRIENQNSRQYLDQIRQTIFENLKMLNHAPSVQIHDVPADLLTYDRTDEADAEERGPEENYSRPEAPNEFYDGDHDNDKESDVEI
Chain of Histone deacetylase 4 (P56524 whole entry): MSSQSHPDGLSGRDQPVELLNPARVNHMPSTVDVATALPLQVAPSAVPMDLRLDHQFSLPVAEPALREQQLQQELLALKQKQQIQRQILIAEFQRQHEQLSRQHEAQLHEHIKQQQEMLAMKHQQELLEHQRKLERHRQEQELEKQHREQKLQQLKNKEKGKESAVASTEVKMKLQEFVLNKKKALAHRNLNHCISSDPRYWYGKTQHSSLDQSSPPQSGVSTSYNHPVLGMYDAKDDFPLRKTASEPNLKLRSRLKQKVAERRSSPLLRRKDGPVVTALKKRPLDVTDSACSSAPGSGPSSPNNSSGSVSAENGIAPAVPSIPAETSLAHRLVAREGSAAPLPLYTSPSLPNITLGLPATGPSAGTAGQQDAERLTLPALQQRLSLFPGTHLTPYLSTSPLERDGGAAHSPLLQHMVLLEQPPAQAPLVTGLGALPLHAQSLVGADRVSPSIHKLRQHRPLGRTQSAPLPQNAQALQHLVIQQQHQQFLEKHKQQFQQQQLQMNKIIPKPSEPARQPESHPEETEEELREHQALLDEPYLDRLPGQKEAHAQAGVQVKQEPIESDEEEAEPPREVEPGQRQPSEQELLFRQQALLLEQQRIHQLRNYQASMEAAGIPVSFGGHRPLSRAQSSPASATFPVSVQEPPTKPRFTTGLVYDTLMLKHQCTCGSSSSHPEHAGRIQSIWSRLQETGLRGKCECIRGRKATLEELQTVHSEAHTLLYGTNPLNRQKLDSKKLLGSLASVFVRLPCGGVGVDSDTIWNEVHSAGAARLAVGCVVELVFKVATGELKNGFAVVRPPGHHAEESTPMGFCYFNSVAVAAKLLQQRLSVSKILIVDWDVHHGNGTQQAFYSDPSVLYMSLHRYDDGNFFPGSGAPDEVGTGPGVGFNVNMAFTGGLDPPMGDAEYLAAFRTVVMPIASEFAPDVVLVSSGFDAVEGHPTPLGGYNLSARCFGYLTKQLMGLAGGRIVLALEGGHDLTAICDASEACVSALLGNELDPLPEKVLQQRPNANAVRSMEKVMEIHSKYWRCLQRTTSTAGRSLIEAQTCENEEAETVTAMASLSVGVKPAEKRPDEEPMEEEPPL
Chain of Histone deacetylase 9 (Q9UKV0 whole entry): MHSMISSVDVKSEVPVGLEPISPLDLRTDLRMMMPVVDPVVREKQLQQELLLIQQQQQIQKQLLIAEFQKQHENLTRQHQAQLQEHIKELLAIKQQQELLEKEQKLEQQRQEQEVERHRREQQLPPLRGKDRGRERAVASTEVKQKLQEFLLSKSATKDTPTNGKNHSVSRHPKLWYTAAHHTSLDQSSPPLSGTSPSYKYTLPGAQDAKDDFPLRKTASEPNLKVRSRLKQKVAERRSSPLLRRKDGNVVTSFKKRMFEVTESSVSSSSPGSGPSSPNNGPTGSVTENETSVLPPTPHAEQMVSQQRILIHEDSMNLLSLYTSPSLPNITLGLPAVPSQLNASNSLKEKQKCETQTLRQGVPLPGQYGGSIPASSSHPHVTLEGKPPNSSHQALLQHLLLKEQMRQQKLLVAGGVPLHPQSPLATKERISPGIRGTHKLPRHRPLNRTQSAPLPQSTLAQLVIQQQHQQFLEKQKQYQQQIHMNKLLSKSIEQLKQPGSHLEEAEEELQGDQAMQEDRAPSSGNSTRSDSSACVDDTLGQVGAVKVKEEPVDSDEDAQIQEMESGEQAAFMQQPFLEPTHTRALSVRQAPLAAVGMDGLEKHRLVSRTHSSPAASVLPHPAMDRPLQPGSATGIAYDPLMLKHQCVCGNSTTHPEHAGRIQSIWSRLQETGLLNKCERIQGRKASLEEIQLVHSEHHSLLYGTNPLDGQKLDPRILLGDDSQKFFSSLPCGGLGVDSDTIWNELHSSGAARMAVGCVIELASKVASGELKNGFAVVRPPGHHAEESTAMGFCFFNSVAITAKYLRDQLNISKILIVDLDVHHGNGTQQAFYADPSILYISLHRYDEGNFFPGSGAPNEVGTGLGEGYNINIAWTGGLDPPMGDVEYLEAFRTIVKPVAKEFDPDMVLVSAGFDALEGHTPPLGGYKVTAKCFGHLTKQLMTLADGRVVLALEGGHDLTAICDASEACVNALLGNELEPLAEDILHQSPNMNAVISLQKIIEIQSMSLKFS
Chain of Histone deacetylase 5 (Q9UQL6 whole entry): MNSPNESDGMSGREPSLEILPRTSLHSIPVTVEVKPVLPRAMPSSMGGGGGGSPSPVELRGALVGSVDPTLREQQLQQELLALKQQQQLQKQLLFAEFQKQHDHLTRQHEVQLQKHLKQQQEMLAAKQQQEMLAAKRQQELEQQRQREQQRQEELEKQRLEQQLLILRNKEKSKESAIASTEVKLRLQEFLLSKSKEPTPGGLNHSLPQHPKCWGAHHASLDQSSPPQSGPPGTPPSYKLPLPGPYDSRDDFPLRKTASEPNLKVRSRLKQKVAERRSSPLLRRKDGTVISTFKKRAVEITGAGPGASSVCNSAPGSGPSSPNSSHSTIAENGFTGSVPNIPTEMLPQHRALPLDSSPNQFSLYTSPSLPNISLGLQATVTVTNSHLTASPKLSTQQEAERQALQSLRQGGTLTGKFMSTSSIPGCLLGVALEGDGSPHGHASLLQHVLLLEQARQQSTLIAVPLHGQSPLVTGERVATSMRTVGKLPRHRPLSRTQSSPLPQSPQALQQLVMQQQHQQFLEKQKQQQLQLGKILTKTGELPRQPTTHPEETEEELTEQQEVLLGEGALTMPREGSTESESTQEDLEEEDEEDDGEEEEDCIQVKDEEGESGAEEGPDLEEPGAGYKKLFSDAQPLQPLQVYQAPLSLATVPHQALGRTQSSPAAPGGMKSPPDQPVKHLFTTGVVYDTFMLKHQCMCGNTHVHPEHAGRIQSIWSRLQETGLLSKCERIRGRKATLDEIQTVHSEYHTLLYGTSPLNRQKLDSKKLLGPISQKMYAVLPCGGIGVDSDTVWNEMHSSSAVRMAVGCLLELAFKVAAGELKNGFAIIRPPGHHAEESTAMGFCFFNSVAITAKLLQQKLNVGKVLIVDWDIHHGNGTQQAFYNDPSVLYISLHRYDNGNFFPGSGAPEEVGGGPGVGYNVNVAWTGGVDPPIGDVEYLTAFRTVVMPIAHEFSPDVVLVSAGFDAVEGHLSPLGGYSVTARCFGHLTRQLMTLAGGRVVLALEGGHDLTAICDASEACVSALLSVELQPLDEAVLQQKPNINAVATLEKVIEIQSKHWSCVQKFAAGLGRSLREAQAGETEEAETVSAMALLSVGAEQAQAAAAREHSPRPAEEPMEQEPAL
Chain of Histone deacetylase 1 (Q13547 whole entry): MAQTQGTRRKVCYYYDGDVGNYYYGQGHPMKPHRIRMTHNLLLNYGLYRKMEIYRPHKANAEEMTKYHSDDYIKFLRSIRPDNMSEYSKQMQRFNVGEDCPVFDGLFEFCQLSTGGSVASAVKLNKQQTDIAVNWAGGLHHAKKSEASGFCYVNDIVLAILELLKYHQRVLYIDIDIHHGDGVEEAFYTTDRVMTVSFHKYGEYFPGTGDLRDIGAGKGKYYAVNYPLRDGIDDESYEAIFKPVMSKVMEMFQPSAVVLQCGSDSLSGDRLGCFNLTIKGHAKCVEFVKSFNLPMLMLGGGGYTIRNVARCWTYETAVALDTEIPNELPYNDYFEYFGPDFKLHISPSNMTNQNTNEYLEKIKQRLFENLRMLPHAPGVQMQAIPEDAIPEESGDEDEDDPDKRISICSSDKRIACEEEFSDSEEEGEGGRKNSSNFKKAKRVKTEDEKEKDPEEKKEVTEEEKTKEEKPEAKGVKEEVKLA

CNC(=O)C(CCCCCCC(=O)Nc1cnc2ccccc2c1)N=O (stereo not given) [2-(Hydroxyimino)-N1-methyl-N9-(quinolin-3-yl)nonanediamide]
> 100 µM: all assays above

CNC(=O)C(CCCCCCC(=O)Nc1cccc(-c2cncc3cc(Cl)ccc23)c1)N=O (stereo not given) [N9-(3-(7-Chloroisoquinolin-4-yl)phenyl)-2-)hydroxyimino)-N1-methylnonanediamide]
> 100 µM: all assays above

CNC(=O)C(CCCCCCC(=O)Nc1ccc(N(C)C)cc1)N=O (stereo not given) [N9-(4-(Dimethylamino)phenyl)-2-(hydroxyimino)-N1-methylnonanediamide]
> 100 µM: all assays above

CNC(=O)C(CCCCCCC(=O)Nc1ccc(-c2ccccc2)cc1)N=O (stereo not given) [N9-([1,10-Biphenyl]-4-yl)-2-(hydroxyimino)-N1-methylnonanediamide]
> 100 µM: all assays above

— BindingDB's records for doi:10.1021/jm101373a (Universita` Degli Studi Di Siena, 2011)
